Laboratory results published in the kinase profiling compilation of Christmann-Franck et al. (2016).
Values joined by “and” are separate entries in the source; they are usually repeats but may differ in a detail not shown here. Equal entries are not always repeated.

How the values were obtained:
Experiment in all cases: radiometric filter-binding kinase assay, Kinase HotSpot
Conditions in all cases: compound 0.5 µM; ATP 10 µM
[1] = target: JAK1 JH1 catalytic (human) (UniProt P23458)
MAP3K3 (human) = MAP3K3 (human) (UniProt Q99759)
PRKG1 (human) = PRKG1 (human) (UniProt Q13976)
OXSR1 (human) = OXSR1 (human) (UniProt O95747)
EPHB4 (human) = EPHB4 (human) (UniProt P54760)
EPHA6 (human) = EPHA6 (human) (UniProt Q9UF33)
ABL2 (human) = ABL2 (human) (UniProt P42684)
MAP4K2 (human) = MAP4K2 (human) (UniProt Q12851)
TEK (human) = TEK (human) (UniProt Q02763)
CAMKK2 (human) = CAMKK2 (human) (UniProt Q96RR4)
NEK2 (human) = NEK2 (human) (UniProt P51955)
BMX (human) = BMX (human) (UniProt P51813)
ULK3 (human) = ULK3 (human) (UniProt Q6PHR2)
PRKG2 (human) = PRKG2 (human) (UniProt Q13237)
BRAF (human) = BRAF (human) (UniProt P15056)
CDK4 CCND1 (human) = CDK4 CCND1 (human) (UniProt P24385+P11802)
DYRK1A (human) = DYRK1A (human) (UniProt Q13627)
PRKCI (human) = PRKCI (human) (UniProt P41743)
IGF1R (human) = IGF1R (human) (UniProt P08069)
AXL (human) = AXL (human) (UniProt P30530)
MARK4 (human) = MARK4 (human) (UniProt Q96L34)
PBK (human) = PBK (human) (UniProt Q96KB5)
GSG2 (human) = GSG2 (human) (UniProt Q8TF76)
TLK2 (human) = TLK2 (human) (UniProt Q86UE8)
PRKCE (human) = PRKCE (human) (UniProt Q02156)
ULK2 (human) = ULK2 (human) (UniProt Q8IYT8)
CLK1 (human) = CLK1 (human) (UniProt P49759)
MYO3B (human) = MYO3B (human) (UniProt Q8WXR4)
PRKX (human) = PRKX (human) (UniProt P51817)
CSNK1D (human) = CSNK1D (human) (UniProt P48730)
JAK2 JH1 JH2 (human) = JAK2 JH1 JH2 (human) (UniProt O60674)
MST1R (human) = MST1R (human) (UniProt Q04912)
MAPK11 (human) = MAPK11 (human) (UniProt Q15759)
DYRK2 (human) = DYRK2 (human) (UniProt Q92630)
CHUK (human) = CHUK (human) (UniProt O15111)
PRKACG (human) = PRKACG (human) (UniProt P22612)
CHEK2 (human) = CHEK2 (human) (UniProt O96017)
EPHB2 (human) = EPHB2 (human) (UniProt P29323)
STK38 (human) = STK38 (human) (UniProt Q15208)
CSF1R (human) = CSF1R (human) (UniProt P07333)
PAK1 (human) = PAK1 (human) (UniProt Q13153)
TEC (human) = TEC (human) (UniProt P42680)
Chain of TEC (human) (P42680 whole entry, looked up): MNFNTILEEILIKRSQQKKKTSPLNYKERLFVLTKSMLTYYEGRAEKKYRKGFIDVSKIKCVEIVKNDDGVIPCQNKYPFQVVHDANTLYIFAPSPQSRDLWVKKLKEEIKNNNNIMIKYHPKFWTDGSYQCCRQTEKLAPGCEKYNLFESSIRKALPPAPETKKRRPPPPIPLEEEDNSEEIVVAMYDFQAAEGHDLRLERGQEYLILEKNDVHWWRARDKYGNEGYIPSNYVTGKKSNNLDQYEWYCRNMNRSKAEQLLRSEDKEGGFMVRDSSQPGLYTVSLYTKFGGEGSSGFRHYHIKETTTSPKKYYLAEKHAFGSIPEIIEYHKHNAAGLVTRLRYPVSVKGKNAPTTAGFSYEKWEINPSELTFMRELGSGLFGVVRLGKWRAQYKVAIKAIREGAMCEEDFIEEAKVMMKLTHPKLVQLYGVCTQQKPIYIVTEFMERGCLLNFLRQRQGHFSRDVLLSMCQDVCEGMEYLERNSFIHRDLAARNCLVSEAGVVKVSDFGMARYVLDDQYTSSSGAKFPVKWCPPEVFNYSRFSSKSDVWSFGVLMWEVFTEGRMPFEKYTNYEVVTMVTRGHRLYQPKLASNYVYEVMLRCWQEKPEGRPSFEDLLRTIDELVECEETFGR

Chain of PRKG1 (human) (Q13976 whole entry, looked up): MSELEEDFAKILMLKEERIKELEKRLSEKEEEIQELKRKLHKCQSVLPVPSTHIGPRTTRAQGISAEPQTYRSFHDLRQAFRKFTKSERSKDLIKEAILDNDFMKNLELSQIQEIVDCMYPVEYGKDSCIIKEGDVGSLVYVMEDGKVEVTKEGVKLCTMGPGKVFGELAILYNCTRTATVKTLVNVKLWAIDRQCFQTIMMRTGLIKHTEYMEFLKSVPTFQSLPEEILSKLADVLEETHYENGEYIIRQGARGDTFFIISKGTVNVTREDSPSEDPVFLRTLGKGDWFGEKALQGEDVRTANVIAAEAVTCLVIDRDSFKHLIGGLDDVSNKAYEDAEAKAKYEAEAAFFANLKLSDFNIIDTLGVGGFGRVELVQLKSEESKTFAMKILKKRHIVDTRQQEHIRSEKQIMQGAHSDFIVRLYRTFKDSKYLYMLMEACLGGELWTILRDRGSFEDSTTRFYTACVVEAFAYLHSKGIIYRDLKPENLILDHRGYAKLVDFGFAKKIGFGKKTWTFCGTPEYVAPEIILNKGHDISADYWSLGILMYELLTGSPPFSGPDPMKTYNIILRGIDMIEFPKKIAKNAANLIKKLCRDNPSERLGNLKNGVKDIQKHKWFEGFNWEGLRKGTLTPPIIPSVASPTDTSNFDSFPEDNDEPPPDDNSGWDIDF
Chain of PRKCI (human) (P41743 whole entry, looked up): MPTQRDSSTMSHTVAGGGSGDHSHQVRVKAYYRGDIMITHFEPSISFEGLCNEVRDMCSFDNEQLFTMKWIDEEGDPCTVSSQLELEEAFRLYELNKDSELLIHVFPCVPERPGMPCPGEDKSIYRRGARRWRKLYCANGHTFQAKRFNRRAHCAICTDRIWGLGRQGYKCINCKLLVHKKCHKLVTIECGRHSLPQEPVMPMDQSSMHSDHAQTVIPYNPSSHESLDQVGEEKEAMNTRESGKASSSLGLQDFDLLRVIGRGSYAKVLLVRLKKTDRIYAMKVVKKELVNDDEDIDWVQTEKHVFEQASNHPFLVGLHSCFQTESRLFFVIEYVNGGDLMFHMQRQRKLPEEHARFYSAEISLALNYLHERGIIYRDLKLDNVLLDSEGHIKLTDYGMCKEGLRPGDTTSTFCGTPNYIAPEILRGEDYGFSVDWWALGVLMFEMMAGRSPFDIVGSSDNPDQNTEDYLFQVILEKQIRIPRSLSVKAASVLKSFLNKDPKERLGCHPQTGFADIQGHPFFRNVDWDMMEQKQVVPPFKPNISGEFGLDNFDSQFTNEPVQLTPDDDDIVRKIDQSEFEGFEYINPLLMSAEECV
Chain of OXSR1 (human) (O95747 whole entry, looked up): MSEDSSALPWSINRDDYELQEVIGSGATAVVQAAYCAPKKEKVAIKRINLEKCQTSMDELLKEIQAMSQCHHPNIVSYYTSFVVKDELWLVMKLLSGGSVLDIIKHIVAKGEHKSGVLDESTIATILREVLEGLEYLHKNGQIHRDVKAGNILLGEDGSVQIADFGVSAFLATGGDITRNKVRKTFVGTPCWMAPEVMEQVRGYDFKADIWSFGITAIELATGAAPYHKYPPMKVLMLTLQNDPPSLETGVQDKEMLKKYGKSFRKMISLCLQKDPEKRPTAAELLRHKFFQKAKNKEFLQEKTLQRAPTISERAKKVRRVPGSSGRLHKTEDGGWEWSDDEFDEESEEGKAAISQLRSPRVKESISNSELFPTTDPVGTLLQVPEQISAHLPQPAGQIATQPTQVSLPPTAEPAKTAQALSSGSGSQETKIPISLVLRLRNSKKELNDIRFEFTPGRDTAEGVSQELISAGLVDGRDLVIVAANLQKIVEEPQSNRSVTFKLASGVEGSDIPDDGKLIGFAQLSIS
Chain of BMX (human) (P51813 whole entry, looked up): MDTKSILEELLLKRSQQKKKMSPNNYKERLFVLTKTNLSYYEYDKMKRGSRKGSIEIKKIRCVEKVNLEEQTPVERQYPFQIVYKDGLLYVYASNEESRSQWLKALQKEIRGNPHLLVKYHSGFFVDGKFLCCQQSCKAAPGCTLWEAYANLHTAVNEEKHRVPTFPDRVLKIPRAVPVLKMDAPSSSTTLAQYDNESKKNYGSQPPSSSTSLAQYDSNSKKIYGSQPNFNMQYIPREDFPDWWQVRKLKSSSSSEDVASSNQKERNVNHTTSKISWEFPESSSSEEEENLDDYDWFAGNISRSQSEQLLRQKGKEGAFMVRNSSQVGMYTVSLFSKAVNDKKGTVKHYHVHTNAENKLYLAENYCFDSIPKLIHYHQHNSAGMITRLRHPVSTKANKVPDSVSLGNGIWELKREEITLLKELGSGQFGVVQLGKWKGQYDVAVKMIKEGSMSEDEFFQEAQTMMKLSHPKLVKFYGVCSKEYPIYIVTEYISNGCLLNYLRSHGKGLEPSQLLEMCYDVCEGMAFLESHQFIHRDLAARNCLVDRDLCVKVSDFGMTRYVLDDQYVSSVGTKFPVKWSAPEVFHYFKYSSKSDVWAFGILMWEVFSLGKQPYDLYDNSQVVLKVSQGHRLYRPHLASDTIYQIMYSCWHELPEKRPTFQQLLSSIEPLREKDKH
Chain of CDK4 CCND1 (human) (P11802 whole entry, looked up): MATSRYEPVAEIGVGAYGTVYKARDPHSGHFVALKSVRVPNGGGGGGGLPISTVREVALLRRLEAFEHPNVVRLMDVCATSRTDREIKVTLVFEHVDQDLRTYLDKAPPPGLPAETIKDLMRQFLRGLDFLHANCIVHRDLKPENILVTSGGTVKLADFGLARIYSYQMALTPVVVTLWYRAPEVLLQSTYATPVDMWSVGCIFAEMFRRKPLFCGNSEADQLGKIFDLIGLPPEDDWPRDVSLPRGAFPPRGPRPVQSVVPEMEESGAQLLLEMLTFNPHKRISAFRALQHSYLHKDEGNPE
Chain of CDK4 CCND1 (human) (P24385 whole entry, looked up): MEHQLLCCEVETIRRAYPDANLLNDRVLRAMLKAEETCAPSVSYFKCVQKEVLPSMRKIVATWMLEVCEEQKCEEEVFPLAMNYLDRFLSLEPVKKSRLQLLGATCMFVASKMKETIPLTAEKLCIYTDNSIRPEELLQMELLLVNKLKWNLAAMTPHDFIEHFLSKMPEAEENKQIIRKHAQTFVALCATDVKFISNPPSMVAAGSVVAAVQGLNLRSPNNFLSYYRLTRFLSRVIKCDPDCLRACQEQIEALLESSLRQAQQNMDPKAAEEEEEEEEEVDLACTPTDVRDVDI
Chain of MAP3K3 (human) (Q99759 whole entry, looked up): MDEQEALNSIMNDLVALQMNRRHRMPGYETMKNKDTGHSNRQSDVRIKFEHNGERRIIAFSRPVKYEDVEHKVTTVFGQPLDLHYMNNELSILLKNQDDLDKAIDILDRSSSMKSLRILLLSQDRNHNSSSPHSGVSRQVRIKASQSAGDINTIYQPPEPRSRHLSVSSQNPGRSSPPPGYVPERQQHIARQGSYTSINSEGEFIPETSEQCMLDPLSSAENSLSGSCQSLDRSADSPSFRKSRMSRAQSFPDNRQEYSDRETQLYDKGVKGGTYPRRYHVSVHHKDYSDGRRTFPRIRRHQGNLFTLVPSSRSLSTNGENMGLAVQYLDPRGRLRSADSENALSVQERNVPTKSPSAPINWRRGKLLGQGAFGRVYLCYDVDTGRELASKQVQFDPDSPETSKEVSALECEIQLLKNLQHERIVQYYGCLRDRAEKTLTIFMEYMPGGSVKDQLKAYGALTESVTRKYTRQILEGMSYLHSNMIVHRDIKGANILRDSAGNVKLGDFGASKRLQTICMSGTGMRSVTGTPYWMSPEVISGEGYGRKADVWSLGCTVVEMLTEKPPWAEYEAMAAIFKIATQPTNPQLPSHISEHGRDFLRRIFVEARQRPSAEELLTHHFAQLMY
Chain of CHEK2 (human) (O96017 whole entry, looked up): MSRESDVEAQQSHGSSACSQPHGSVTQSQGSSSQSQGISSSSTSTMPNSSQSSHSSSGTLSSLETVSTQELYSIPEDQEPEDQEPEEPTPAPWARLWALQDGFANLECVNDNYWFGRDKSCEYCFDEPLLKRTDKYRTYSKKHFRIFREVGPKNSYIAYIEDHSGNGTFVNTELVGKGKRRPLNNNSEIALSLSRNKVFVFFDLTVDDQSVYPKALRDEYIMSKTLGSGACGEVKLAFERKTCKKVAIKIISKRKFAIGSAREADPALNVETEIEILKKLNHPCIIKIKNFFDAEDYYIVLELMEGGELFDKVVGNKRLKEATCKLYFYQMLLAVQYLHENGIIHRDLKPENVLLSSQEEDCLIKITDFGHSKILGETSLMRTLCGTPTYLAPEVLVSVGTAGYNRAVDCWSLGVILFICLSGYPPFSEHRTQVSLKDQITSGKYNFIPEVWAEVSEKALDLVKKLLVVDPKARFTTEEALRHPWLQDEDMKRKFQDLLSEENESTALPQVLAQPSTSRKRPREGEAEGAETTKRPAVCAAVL

For CN(C)C[C@H]1CCn2c(c(C3=C(c4cn(C)c5ccccc45)C(=O)NC3=O)c3ccccc32)C1, the residual activity [1] was 108%, the residual activity (MAP3K3 (human)) was 86.1% and the residual activity (PRKG1 (human)) was 81% and 88.8%. For the same molecule, the residual activity (OXSR1 (human)) was 98.4%, the residual activity (EPHB4 (human)) was 90.9% and the residual activity (EPHA6 (human)) was 100%. It also gave a residual activity (ABL2 (human)) of 96.3%, a residual activity (MAP4K2 (human)) of 99% and a residual activity (TEK (human)) of 98.4%. It also gave a residual activity (CAMKK2 (human)) of 108%, a residual activity (NEK2 (human)) of 106% and a residual activity (BMX (human)) of 91.7%. It also gave a residual activity (ULK3 (human)) of 88.9%, a residual activity (PRKG2 (human)) of 90.7% and a residual activity (BRAF (human)) of 95.2%. For the same molecule, the residual activity (CDK4 CCND1 (human)) was 86.9%, the residual activity (DYRK1A (human)) was 88.7% and the residual activity (PRKCI (human)) was 36.2%. It also gave a residual activity (IGF1R (human)) of 101%, a residual activity (AXL (human)) of 99.3% and a residual activity (MARK4 (human)) of 93.9%. The residual activity (PBK (human)) was 101%, the residual activity (GSG2 (human)) was 100% and the residual activity (TLK2 (human)) was 88.4%. It also gave a residual activity (PRKCE (human)) of 2.73%, a residual activity (ULK2 (human)) of 105% and a residual activity (CLK1 (human)) of 105%. The residual activity (MYO3B (human)) was 87.9%, the residual activity (PRKX (human)) was 97.8% and the residual activity (CSNK1D (human)) was 101%. The residual activity (JAK2 JH1 JH2 (human)) was 98.6%, the residual activity (MST1R (human)) was 98.3% and the residual activity (MAPK11 (human)) was 109%. It also gave a residual activity (DYRK2 (human)) of 102%, a residual activity (CHUK (human)) of 103% and a residual activity (PRKACG (human)) of 108%. For the same molecule, the residual activity (CHEK2 (human)) was 95%, the residual activity (EPHB2 (human)) was 110% and the residual activity (STK38 (human)) was 96.7%. It also gave a residual activity (CSF1R (human)) of 98.1%, a residual activity (PAK1 (human)) of 99.8% and a residual activity (TEC (human)) of 108%.
With COc1cc2ncnc(N3CCN(C(=O)Nc4ccc(Oc5ccccc5)cc4)CC3)c2cc1OC the residual activity [1] was 96.5%, the residual activity (MAP3K3 (human)) was 83.7% and the residual activity (PRKG1 (human)) was 85.6% and 98.7%. For the same molecule, the residual activity (OXSR1 (human)) was 119%, the residual activity (EPHB4 (human)) was 99.3% and the residual activity (EPHA6 (human)) was 89.6%. It also gave a residual activity (ABL2 (human)) of 92.9%, a residual activity (MAP4K2 (human)) of 94.7% and a residual activity (TEK (human)) of 92.6%. It also gave a residual activity (CAMKK2 (human)) of 81.6%, a residual activity (NEK2 (human)) of 81.3% and a residual activity (BMX (human)) of 90.9%. The residual activity (ULK3 (human)) was 100%, the residual activity (PRKG2 (human)) was 97.5% and the residual activity (BRAF (human)) was 92.6%. The residual activity (CDK4 CCND1 (human)) was 101%, the residual activity (DYRK1A (human)) was 97.9% and the residual activity (PRKCI (human)) was 105%. The residual activity (IGF1R (human)) was 103%, the residual activity (AXL (human)) was 91.7% and the residual activity (MARK4 (human)) was 76.5%. For the same molecule, the residual activity (PBK (human)) was 85.8%, the residual activity (GSG2 (human)) was 93.2% and the residual activity (TLK2 (human)) was 94.7%. For the same molecule, the residual activity (PRKCE (human)) was 106%, the residual activity (ULK2 (human)) was 102% and the residual activity (CLK1 (human)) was 89.4%. For the same molecule, the residual activity (MYO3B (human)) was 95.4%, the residual activity (PRKX (human)) was 99.3% and the residual activity (CSNK1D (human)) was 103%. The residual activity (JAK2 JH1 JH2 (human)) was 99.3%, the residual activity (MST1R (human)) was 90.3% and the residual activity (MAPK11 (human)) was 99.6%. For the same molecule, the residual activity (DYRK2 (human)) was 95.4%, the residual activity (CHUK (human)) was 96% and the residual activity (PRKACG (human)) was 103%. It also gave a residual activity (CHEK2 (human)) of 102%, a residual activity (EPHB2 (human)) of 98.2% and a residual activity (STK38 (human)) of 96.9%. For the same molecule, the residual activity (CSF1R (human)) was 67.2%, the residual activity (PAK1 (human)) was 91.8% and the residual activity (TEC (human)) was 101%.
